For one data set, the system named is B16 cells. Briefly: Cytotoxicity in B16 cell culture. It is filed as cell-based, mouse. The following applies: D-MEM medium, 2.0 mM, 2 h.
The subject of data set [1] is glutathione. Briefly: Production level of glutathione in A431 cells. It is filed as cell-based, human. Particulars: 0.1 mM, 24 h, control = 100%. As to the method: To Dulbecco's MEM medium, containing 10% v/v calf fetal serum and an antibiotic (abbreviated as “D-MEM”, hereinafter), were added ascorbic acid 2-glucoside, a reagent grade specimen commercialized by Hayashibara Co., Ltd., Okayama, Japan, or L-ascorbic acid, a special reagent grade specimen commercialized by Wako Pure Chemical Industries, Ltd., Tokyo, Japan, […]
Continuously-cultivated A431 cells in D-MEM medium were collected, resuspended in D-MEM medium, inoculated to culture plates with 10 cm in diameter (φ) in an amount of 1×10^6 cells/10 mL/plate, and cultured for 24 hours. Thereafter, the culture supernatants were removed by sucking, and the remaining cells were added with any of the test solutions in an amount of 10 mL/plate and cultured for another 24 hours. As a control, cells were added with only D-MEM medium in an amount of 10 mL/plate and cultured for 24 hours. To each plate, which had been removed its culture supernatant, was added ice-chilled Dulbecco's PBS (−) commercialized by Nissui Pharmaceutical Co., Ltd., Tokyo, Japan, to wash cells, which were then collected with a scraper. Glutathione was quantified with “Glutathione Assay Kit”, a commercially available glutathione assay kit commercialized by BioVision, Inc., San Francisco, USA. In this experiment, the control and test solutions were respectively assayed by using three plates respectively, and the data were averaged for obtaining a glutathione production level for each plate. A5% v/v CO2 incubator was used for culturing A431 cells in any case. Relative values of test samples were determined with the proviso that the production levels of reduced glutathione and total glutathione levels in A431 cells that had been cultured with only D-MEM medium were respectively regarded as 100%, and the results are in Table 4.

For data set [2], the system named is glutathione. Briefly: Production level of glutathione in NHEK cells. Particulars: 0.1 mM, 24 h, control = 100%. The format is cell-based, human. As for the experimental part:
Continuously-cultivated NHEK cells in EpiLife medium were collected, resuspended in EpiLife medium, inoculated to culture plates with 10 cm in diameter in an amount of 1×10^6 cells/10 mL/plate, and cultured for 24 hours. Thereafter, each culture supernatant was removed by sucking, and any of the test solutions was added to the remaining cells in a volume of 10 mL/plate, followed by culturing the cells for another 24 hours. As a control, cells were added with only D-MEM medium in an amount of 10 mL/plate and cultured for 24 hours. Each culture supernatant was removed from each plate, then ice-chilled Dulbecco's PBS (−), commercialized by Nissui Pharmaceutical Co., Ltd., Tokyo, Japan, was added to rinse the remaining cells, which were then collected with a scraper. Glutathione was quantified on “Glutathione Assay Kit”, a product name of glutathione assay kit commercialzied by BioVision, Inc., San Francisco, USA. In this experiment, the control and test solutions in respective three plates were assayed for glutathione production level for each plate and averaged for obtaining the glutathione production level of each solution. A 5% v/v CO2 incubator was used for culturing NHEK cells in any case. Relative values of test samples were determined with the proviso that the production levels of reduced glutathione and total glutathione in NHEK cells that had been cultured with only EpiLife medium were respectively regarded as 100%, and the results are in Table 5.

The test system of a further data set is NHEK cells. Briefly: Cytotoxicity in NHEK cell culture. The format is cell-based, human. Particulars: EpiLife medium, 24 h.
The next data set concerns A431 cells. Briefly: Cytotoxicity in A431 cell culture. The format is cell-based, human. Particulars: D-MEM medium, 24 h.
In a further data set the test system is occludin. Briefly: TJ-related protein occludin in NHEK cells (Western). The following applies: 1 mM, 3 days, CaCl2 positive control = 100%, no addition 63%. It is filed as cell-based, human. As to the method: (§1) The following experiment was conducted to examine the effect of ascorbic acid 2-glucoside on the production of TJ-related proteins that constitute cell-cell adhesion structures by focusing on occludin and ZO-1 that are focused on as TJ-related proteins known to exist in a granular layer of epidermis: As a model for typical normal human epidermal cells, NHEK cells were suspended in EpiLife medium (pH 7.4); inoculated to 12-well microplates at a cell density of 1×10^5 cells/well; cultured overnight under the conditions of 37° C. and 5% v/v CO2; and further cultured for three days under the conditions of 37° C. and 5% v/v CO2 after adding either CaCl2 as a positive control to each well to give a final concentration of 0.5 mM, or “AA2G”, a product name of a particulate composition containing anhydrous crystalline ascorbic acid 2-glucoside, commercialized by Hayashibara Co., Ltd., Okayama, Japan, to give a final concentration of 0.5 or 1 mM. […] A sample of 20 μg protein for each lane per each cell extract in respective wells was applied to sodium dodecyl sulfate polyacrylamide gel electrophoresis (SDS-PAGE) with 10% w/v SDS containing DTT, followed by assaying the concentration of occludin or ZO-1 in each cell extract with “Luminate Western HRP Substrates”, a product name of a premixed, ready-to-use chemiluminescent detection reagent using an internal standard “α-Tubulin”, commercialized by Merck KGaA, Darmstadt, Germany, wherein there were used “F-11”, a product name of an anti-occludin mouse monoclonal antibody, commercialized by Santa Cruz Biotechnology, Inc., Texas, USA, or “ZO1-1A12”, a product name of a ZO-1 mouse monoclonal antibody, commercialized by Invitrogen Corporation, Calif., USA, was used as a first antibody; and “PO447”, a product name of a horseradish peroxidase (HRPO) labeled anti-mouse IgG, commercialized by DAKO Japan Inc., Tokyo, Japan, or “PO448”, a product name of an HRPO-labeled anti-rabbit IgG, commercialized by DAKO Japan Inc., Tokyo, Japan, as a secondary antibody. […]

The next data set relates to ZO-1. Briefly: TJ-related protein ZO-1 in NHEK cells (Western). It is filed as cell-based, human. Particulars: 1 mM, 3 days, CaCl2 positive control = 100%, no addition 38%. As for the experimental part:
as §1

A further data set has as its system cornified envelope (CE). Briefly: Production of cornified envelope (CE) in NHEK cells. Particulars: 1 mM, 5 days, control 0.63 ± 0.07. It is filed as cell-based, human. As for the experimental part:
The following experiment was conducted to examine the effect of ascorbic acid 2-glucoside on the production of CE in a keratinous layer. As a model for typical normal human epidermal cells, normal human epidermal keratinocytes from neonatal foreskin, commercialized by Kurabo Industries Ltd., Osaka, Japan, and abbreviated as “NHEK cells”, hereinafter, were suspended in EpiLife medium (pH 7.4), commercialized by Invitrogen Corporation, Calif., USA, and called “EpiLife medium”, hereinafter, inoculated to 12-well microplates at a cell density of 1×10^5 cells/well, and cultured under the conditions of 37° C. and 5% v/v CO2 overnight. Thereafter, “AA2G”, a product name of a particulate composition containing anhydrous crystalline ascorbic acid 2-glucoside, commercialized by Hayashibara Co., Ltd., Okayama, Japan, was added to each well to give a final concentration of 0.5 or 1 mM, or, as a positive control, CaCl2 was added to each well to give a final concentration of 1 mM; and the cells in each well were cultured at 37° C. for five days while replacing the medium in each well with a fresh preparation of EpiLife medium having the above-identified concentration of ascorbic acid 2-glucoside or CaCl2. Assay for intracellular CE content was carried out in accordance with Tatsuya Hasegawa et al., “Lipids”, Vol. 46, pp. 529 to 535, 2011. After completion of the culture, the culture supernatant in each well was immediately removed, followed by detaching and extracting the cells adhered to the wall of each well by means of pipetting with phosphate buffered saline (PBS, pH 7.4) containing 2% w/v sodium dodecyl sulfate (SDS), and collecting insoluble fractions by centrifugation at 15,000 rpm for 10 min. […] The measured values were regarded as CE production levels. […]

For the molecule `O=C1O[C@H]([C@@H](O)CO)C(O)=C1O` [L-ascorbic acid], the results for the cytotoxicity result in the data set with B16 cells, with NHEK cells (0.5 mM) and in the data set on A431 cells (1.0 mM) were “induced cytotoxicity”, “cytotoxicity induced” and “cytotoxicity was induced”, respectively. For the same molecule, the Reduced glutathione with glutathione [1] was found to be 103%; in the data set on glutathione [2] it was 102%. In addition, the Total glutathione in the data set with glutathione [1] amounted to 102%; in the data set with glutathione [2] it was 103%. Also, the “upper limit concentration that does not induce cytotoxicity” value with NHEK cells and with A431 cells was 0.1 mM in each case.

With `[Ca+2].[Cl-].[Cl-]` [CaCl2, reference compound], the “Occludin concentration in cell extract” value in the data set on occludin came out at 100%. In the data set on ZO-1, the “ZO-1 Concentration in cell extract” value was found to be 100%. Also, the “OD310nm Value (CE Production level)” value with cornified envelope (CE) was 1.07 ± 0.07.

(Values after patent publication US10111822B2, “External dermal composition for anti-ageing and method for producing the same” (Hayashibara Co., Ltd., priority 2012, dated 2018).)
